Source: patent US7109234B2, “Benzoxathiepine derivatives and their use as medicines” (Pierre Fabre Medicament, priority 2001, dated 2006)
Read-outs that look alike come from different tables or passages of the source.

Columns and labels:
rat isolated left atrium = assay: Inhibition of the veratrine-induced contraction of the rat isolated left atrium; format: cell-based; settings: for IC50: read-out: Contraction with veratrine Inhibition IC50; for in vitro activity (contraction with veratrine): stated in words
New Zealand rabbits = assay: Occlusion-reperfusion model in the anesthetized animal (ECG ST segment, arterial pressure, heart rate); format: in vivo, rabbit; settings: for Arterial pressure % variation / Heart rate % variation / ST segment % inhibition at 2.5 mg/kg p.o.: 2.5 mg/kg p.o., anesthetized rabbit; for ST segment % inhibition at 2.5 mg/kg p.o.: coronary occlusion-reperfusion; for in vivo activity (inhibition of the raising of the ST segment): stated in words, 2.5 mg/kg by the oral route
Experimental: Thus, the compounds of the invention are capable of normalizing the electrical disturbances of the ECG brought about by a regional ischemia followed by a reperfusion, this being achieved without a significant effect on the hemodynamic parameters. The test in question is carried out according to the technique described in J. Cardiovasc. Pharmacol., 1995, 25, 126 according to the following protocol.
Male New Zealand rabbits (Elévage des Dombes, Romans, Chatillon-sur-Chalaronne, France) weighing 2.2 to 2.7 kg are used. The animals are placed in quarantine for 4 to 8 days with free access to standardized laboratory food before they are used in the experiments. The animals are housed individually. Water filtered through a 0.22 μm filter is freely available from an automatic dispenser. The quarantine area and the experimental laboratory are air-conditioned (temperature: 20±3° C.; relative humidity: 55±5%) and are illuminated from 7 a.m. to 7 p.m. All the animals are treated according to the code of ethics for laboratory animals (Guide for the Care and Use of Laboratory Animals, […], Public Health Service, National Institutes of Health publication No. 85-23, Revised 1985) and the protocol (No. 28) is carried out in accordance with the recommendations of the local research animals ethics committee. The animals are anesthetized using sodium pentobarbital (60 mg/kg) administered intravenously (i.v.) via a catheter positioned in the vein of the ear. The animals are instrumented with respiratory assistance (683 rodent/small animal ventilator, Havard Apparatus, Les Ulis, France). The gas mixture inhaled is enriched in oxygen. The respiratory rhythm, the flow volume and the percentage of oxygen in the gas mixture are adjusted so as to keep the gases in the blood within physiological limits. A polyethylene catheter, introduced into the carotid artery, is used both for the measurements of arterial pressure and to take the samples intended for the analysis of the blood gases (ABL 510, Radiometer, Copenhagen, Denmark). Anesthesia is maintained by injections of sodium pentobarbital as required. The body temperature of the animals is kept at 38–39° C. throughout the duration of the experiment using a heating blanket (Homothermic Blanket, Havard Apparatus). The various catheters are rinsed using a sterile saline solution (0.9%) comprising heparin (150 U.I./ml). The ECG (DII derivation) is recorded in order to measure the variations in the heart rate (RR interval) and in the amplitude of the ST segment. The arterial pressure is digitized and analyzed simultaneously (Dataflow®, Crystal Biotech, Northboro, Mass.). The thorax of the animal is opened at the fourth intercostal space and the pericardium is incised so as to reveal the left coronary artery. A ligature (Vicryl®, 5/0, Ethicon, Paris, France) is passed under this artery. After examining the ECG in order to detect any signs of myocardial lesions (persistent rise of the ST segment above 0.25 mV), a period of stabilization lasting 30 min is systematically observed. Any animal showing a possible myocardial lesion is excluded from the study. The test compound or the vehicle is administered per os (p.o.), as a 1% solution in methyl-cellulose, in a proportion of 1 ml/kg via a gastric tube made of flexible rubber. Anesthesia is produced 60 min after administration of the test compound or of the vehicle. The main coronary artery is then ligated for 10 min, i.e. 60 min after anesthesia, the tension in the ligature is subsequently relaxed completely for 10 min and then reestablished at the end of the procedure. The heart is excised and perfused using a formaldehyde solution (10%). The surface not fixed by the formaldehyde is regarded as the surface at risk.
The parameters measured in the experiment are: • the systolic and diastolic arterial pressure; • the heart rate (measured from the RR intervals); • the amplitude of the ST segment. […]

[1] = rat isolated left atrium, veratrine 100 μg/ml, product added 15 min before

IC50 (rat isolated left atrium; [1]) | Compound | in vitro activity (contraction with veratrine) (rat isolated left atrium) | Arterial pressure % variation (New Zealand rabbits) | Heart rate % variation (New Zealand rabbits) | ST segment % inhibition at 2.5 mg/kg p.o. (New Zealand rabbits) | in vivo activity (inhibition of the raising of the ST segment) (New Zealand rabbits) | IC50 (rat isolated left atrium; Rattus norvegicus)
> 10000 nM | COc1ccc([C@@H]2Sc3ccccc3N(CCN(C)C)C(=O)[C@@H]2OC(C)=O)cc1 [Diltiazem, diltiazem] | inactive | −27% | −5% | 30% | active | –
> 10000 nM | CC(C)NCC(O)COc1ccc(CC(N)=O)cc1 (stereo not drawn) [Atenolol, atenolol] | inactive | −9% | −13% | 49% | active | –
– | CN(c1nc2ccccc2s1)C1CCN(CCCCOc2ccc(F)cc2)CC1 [R 56865] | – | – | – | 0% | – | 250 nM
140 nM | COc1ccccc1SC[C@@H](C)CN[C@@H]1COc2ccccc2SC1 [Compound 1-7, 3-(R)-[3-(2-Methoxyphenylthio)-2-(S)-methylpropyl]amino-3,4-dihydro-2H-1,5-benzoxathiepine] | – | 5% | 0% | 69% | – | –
